The values below come from ChEMBL document CHEMBL1128091, “Ly316340: A potent HIV-1 protease inhibitor containing a high affinity octahydrothienopyridine hydroxyethylamine isostere” (Bioorg Med Chem Lett, 1995).

Series [1] deals with CEM-SS. Put plainly: (§1) Inhibitory concentration required for antiviral activity against HXB-2 infected CEM-SS cells. The series is classed as functional, cell-based. The conditions noted are these: Homo sapiens.
In series [2] the target is Human immunodeficiency virus type 1 protease (Human immunodeficiency virus 1, UniProt Q72874). Put plainly: Inhibitory concentration required against HIV-1 protease.
Series [3] concerns CEM-SS. The description is as §1. The format is functional. The conditions noted are these: Homo sapiens.
Series [4] in a line: Bioavailability was evaluated in rats at a dose of 20 mg/kg, under fed state. The series is classed as ADME, organism-based. The conditions noted are these: rat, in vivo.
Series [5] is described as follows: (§2) Cmax value was evaluated in rats at a dose of 20 mg/kg. The format is ADME, organism-based. On the set-up: dose 20 mg/kg. The conditions noted are these: rat, in vivo.
Another series deals with Rattus norvegicus. The series is described as §2. The format is ADME, organism-based. Further details: dose 20 mg/kg. As to conditions: in vivo.
The nature of series [6]: Bioavailability was evaluated in rats at a dose of 20 mg/kg, under fasting state. The format is ADME, organism-based. As to conditions: rat, in vivo.

For the compound `Cc1c(O)cccc1C(=O)N[C@@H](Cc1ccccc1)[C@H](O)CN1C[C@H]2CCCC[C@H]2C[C@H]1C(=O)NC(C)(C)C`, the IC50 (as a rule, the concentration that gives 50% inhibition) in the series with CEM-SS [1] came out at 33 nM; in series [2] it was 13 nM. Further, the IC95 (usually the point of the concentration-response curve where the effect stands at 95%) in the series on CEM-SS [3] amounted to 135 nM.
In series [2], `CC(C)(C)NC(=O)[C@@H]1C[C@@H]2CCCC[C@@H]2CN1C[C@@H](O)[C@H](Cc1ccccc1)NC(=O)OCc1ccccc1` had an IC50 of 127 nM.
In the case of `Cc1c(O)cccc1C(=O)N[C@@H](Cc1ccccc1)[C@H](O)CN1C[C@H]2CCS[C@H]2C[C@H]1C(=O)NC(C)(C)C`, the IC50 in the series on CEM-SS [1] was found to be 24 nM; in series [2], 0.5 nM. The IC95 with CEM-SS [3] worked out at 1360 nM.
Turning to `CC(C)(C)NC(=O)[C@@H]1C[C@@H]2SCC[C@@H]2CN1C[C@@H](O)[C@H](Cc1ccccc1)NC(=O)OCc1ccccc1`, the IC50 in series [2] was 6.6 nM.
As for `Cc1c(O)cccc1C(=O)N[C@@H](CSc1ccccc1)[C@H](O)CN1C[C@H]2CCS[C@H]2C[C@H]1C(=O)NC(C)(C)C`, the IC50 in the series with CEM-SS [1] stood at 5.1 nM; in series [2], 0.3 nM. In the series with CEM-SS [3], this compound showed an IC95 of 18 nM.
With `CS(=O)(=O)O.Cc1c(O)cccc1C(=O)N[C@@H](CSc1ccccc1)[C@H](O)CN1C[C@H]2CCS[C@H]2C[C@H]1C(=O)NC(C)(C)C`, the bioavailability (usually the share of a dose that reaches the circulation, judged against a reference dose that is usually intravenous) in series [4] stood at 19%; in series [6], 22%. For the same compound, the Cmax (usually the maximum level reached in the sampled fluid or tissue) in series [5] was 1400 nM; in the series on Rattus norvegicus it was 1000 nM.
Turning to `CC(C)(C)NC(=O)[C@@H]1C[C@@H]2CCCC[C@@H]2CN1C[C@@H](O)[C@H](Cc1ccccc1)NC(=O)[C@H](CC(N)=O)NC(=O)c1ccc2ccccc2n1`, half-maximal inhibition in the series on CEM-SS [1] (IC50) required 6.6 nM. Besides, in the series with CEM-SS [3], the IC95 turned out to be 21 nM.
